# Measurements: patent publication US11260079B2, “Dosing regimens for the mobilization of hematopoietic stem and progenitor cells” (Magenta Therapeutics, Inc., priority 2017, dated 2022)
# B1: G-CSF: Filgrastim (G-CSF), most common clinical hematopoietic stem cell mobilization protocol (protein, chains of the INN, looked up)
# chain: MTPLGPASSLPQSFLLKCLEQVRKIQGDGAALQEKLCATYKLCHPEELVLLGHSLGIPWAPLSSCPSQALQLAGCLSQLHSGLFLYQGLLQALEGISPELGPTLDTLQLDVADFATTIWQQMEELGMAPALQPTQGAMPAFASAFQRRAGGVLVASHLQSFLEVSYRVLRHLAQP
# Columns and labels:
# [1] = tested on: hematopoietic stem and progenitor cell mobilization; conditions: cited from earlier work; for potency of hematopoietic stem and progenitor cell mobilization relative to Gro-β: described in U.S. Pat. Nos. 6,080,398 and 6,447,766
# [2] = tested on: stem and progenitor cells (LT-HSC); assay: Mobilization of stem and progenitor cells in mice; format: in vivo; conditions: 15 minutes after a single injection
# [3] = tested on: white blood cells, neutrophils, lymphocytes and monocytes; conditions: Rhesus monkeys; plerixafor 1 mg/kg subcutaneously; median value
# Protocol: (§1) Male rhesus macaques were treated with AMD3100 alone or in combination with Gro-β T. Blood was collected immediately prior to and 0.5, 1, 2, 4 and 24 hours after treatment and analyzed by multicolor flow cytometry to quantitate HSPC numbers. Additional aliquots of mobilized blood were plated in methylcellulose and CFU were enumerated seven days later.
# Animals were mobilized with AMD3100 alone or in combination with Gro-β T. Peripheral blood was collected at the time points shown and white blood cells enumerated on a HESKA Hematology Analyzer. Total number of white blood cells, neutrophils, lymphocytes and monocytes per μL of peripheral blood were determined. Data shown in FIGS. 2-5 are expressed as mean±SEM and represent 5 animals per group. Statistical significance was determined based on 2-way ANOVA with post-hoc Dunnett's multiple comparisons test (** p<0.01).
# [4] = tested on: CD34^+ hematopoietic stem and progenitor cells; conditions: Rhesus monkeys; plerixafor 1 mg/kg subcutaneously; median value
# Protocol: as §1
# (§2) The data shown in FIGS. 7 and 8 include the percentage of whole blood accounted for by CD34^+ hematopoietic stem and progenitor cells for each treatment group. Absolute numbers and fold change in CD34^+ cells per μL of peripheral blood were quantified with a single platform quantitative method. Data shown in FIGS. 7 and 8 are expressed as mean±SEM and represent 5 animals per group. Statistical significance was determined based on 2-way ANOVA with post-hoc Dunnett's multiple comparisons test (* p<0.05, ** p<0.01, **** p<0.0001).
# as §2, with “9” for “7”, “10” for “8”, “CD34^+ CD90^+ CD45RA^−” for “CD34^+”, “are shown.” for “were quantified with a single platform quantitative method.”, “p<0.05. **p<0.01, *** p<0.001,” for “p<0.05, ** p<0.01,”
# Additional data summarizing the mobilization of CD34^+ cells (e.g., CD34^+ CD90^+ CD45RA^− cells) in Rhesus monkeys using various doses of Gro-beta T and AMD3100 are reported in TABLES 8-11, below. Quantities are reported in TABLES 8-11 using the following notation: “Median value (Minimum value observed−maximum value observed).”
# [5] = tested on: NOD scid gamma (NSG) mice; assay: Xenograft GVHD model; format: in vivo; conditions: for numbers of T-cells as compared to mice transplanted with Gro-β T and AMD3100-mobilized PBMCs: NSG mice, day 14 post-transplant; for mice died of aGVHD at day 24 / mice remained alive at day 60 post-transplant: sublethally irradiated NSG mice transplanted with 6×10^6 mobilized PBMCs
# Protocol: To assess whether these immunosuppressive cells may prevent GVHD, we developed a xenograft GVHD model in NOD scid gamma (NSG) mice, which are immunodeficient mice. Gro-β T and AMD3100 mobilized peripheral blood (6×10^6 PBMCs) containing a high percentage of CD34^dim cells were injected into sublethally irradiated NSG mice. This was compared to unmobilized primate PBMCs (6×10^6 PBMCs) containing a relatively low numbers of CD34^dim cells and G-CSF mobilized primate PBMCs (6×10^6 PBMCs).
# [6] = tested on: CD34^dim cells; assay: Mobilization of CD34^dim cells, flow cytometry; format: in vivo; conditions: Rhesus macaques; 4 hours after the last dose of G-CSF; n=3
# Protocol: Cells were mobilized according to the method of Example 1. A sample of peripheral blood was tested using a flow cytometer for the markers CD34, CD11b, CD14, CD16, CD45, and SSC.
# Rhesus macaques were treated with Gro-β T, […], Gro-β T and AMD3100, or G-CSF alone. A sample of peripheral blood was tested using a flow cytometry.
molecule,measurement,setting,value
Gro-β T: CXCR2 agonist; Gro-β with deletion of the first four amino acids from the N-terminus (SEQ ID NO: 2),potency of hematopoietic stem and progenitor cell mobilization relative to Gro-β,[1],superior to that of Gro-β by multiple orders of magnitude
same,mobilization of stem and progenitor cells,[2],rapid mobilization
"c1cc(CN2CCCNCCNCCCNCC2)ccc1CN1CCCNCCNCCCNCC1 [plerixafor, 1,1′-[1,4-phenylenebis(methylene)]-bis-1,4,8,11-tetra-azacyclotetradecane]",Fold increase vs. baseline following sc administration of AMD3100: Lymphocytes,[3],2.5 fold
same,Fold increase vs. baseline following sc administration of AMD3100: Monocytes,[3],7.9 fold
same,Fold increase vs. baseline following sc administration of AMD3100: Neutrophils,[3],5.0 fold
same,Fold increase vs. baseline following sc administration of AMD3100: WBCs,[3],2.3 fold
same,Quantity of cells observed 4 hours following sc administration of AMD3100: Lymphocytes,[3],1.35E+07
same,Quantity of cells observed 4 hours following sc administration of AMD3100: Monocytes,[3],3.10E+06
same,Quantity of cells observed 4 hours following sc administration of AMD3100: Neutrophils,[3],2.10E+07
same,Quantity of cells observed 4 hours following sc administration of AMD3100: WBCs,[3],3.90E+07
same,Fold increase vs. baseline following sc administration of AMD3100: CD34^+,[4],9.1 fold
same,Fold increase vs. baseline following sc administration of AMD3100: CD34^+ CD90^+ CD54RA^−,[4],14.9 fold
same,Quantity of cells observed 4 hours following sc administration of AMD3100: CD34^+,[4],41054
same,Quantity of cells observed 4 hours following sc administration of AMD3100: CD34^+ CD90^+ CD54RA^−,[4],14820
same,Ratio of fold increase of CD34^+ CD90^+ CD45RA^− cells to other cell populations: CD34^+,[4],1.4
same,Ratio of fold increase of CD34^+ CD90^+ CD45RA^− cells to other cell populations: Lymphocytes,[4],5.7
same,Ratio of fold increase of CD34^+ CD90^+ CD45RA^− cells to other cell populations: Monocytes,[4],1.6
same,Ratio of fold increase of CD34^+ CD90^+ CD45RA^− cells to other cell populations: Neutrophils,[4],3.0
same,Ratio of fold increase of CD34^+ CD90^+ CD45RA^− cells to other cell populations: WBCs,[4],3.7
same,Ratio of fold increase of CD34^+ cells to other cell populations: CD34^+ CD90^+ CD54RA^−,[4],0.7
same,Ratio of fold increase of CD34^+ cells to other cell populations: Lymphocytes,[4],4.0
same,Ratio of fold increase of CD34^+ cells to other cell populations: Monocytes,[4],1.2
same,Ratio of fold increase of CD34^+ cells to other cell populations: Neutrophils,[4],2.1
same,Ratio of fold increase of CD34^+ cells to other cell populations: WBCs,[4],2.3
same,Ratio of quantity of CD34^+ CD90^+ CD45RA^− cells to other cell populations: CD34^+,[4],0.352
same,Ratio of quantity of CD34^+ CD90^+ CD45RA^− cells to other cell populations: Lymphocytes,[4],0.0011
same,Ratio of quantity of CD34^+ CD90^+ CD45RA^− cells to other cell populations: Monocytes,[4],0.0039
same,Ratio of quantity of CD34^+ CD90^+ CD45RA^− cells to other cell populations: Neutrophils,[4],0.0006
same,Ratio of quantity of CD34^+ CD90^+ CD45RA^− cells to other cell populations: WBCs,[4],0.0003
same,Ratio of quantity of CD34^+ cells to other cell populations: CD34^+ CD90^+ CD54RA^−,[4],2.838
same,Ratio of quantity of CD34^+ cells to other cell populations: Lymphocytes,[4],0.0025
same,Ratio of quantity of CD34^+ cells to other cell populations: Monocytes,[4],0.0111
same,Ratio of quantity of CD34^+ cells to other cell populations: Neutrophils,[4],0.0015
same,Ratio of quantity of CD34^+ cells to other cell populations: WBCs,[4],0.0009
same,numbers of T-cells as compared to mice transplanted with Gro-β T and AMD3100-mobilized PBMCs,[5],approximately 60 fold
same,mice died of aGVHD at day 24,[5],5/16
same,mice remained alive at day 60 post-transplant,[5],10/16
Gro-β T N65D: variant of Gro-β T with aspartic acid in place of asparagine at position 65 (SEQ ID NO: 4),potency of hematopoietic stem and progenitor cell mobilization relative to Gro-β T,"[1]; described in U.S. Pat. No. 6,447,766",substantially greater than that of Gro-β T
Gro-β N69D: variant of Gro-β with aspartic acid in place of asparagine at position 69 (SEQ ID NO: 3),potency of hematopoietic stem and progenitor cell mobilization relative to Gro-β,[1],superior potency
B1,numbers of T-cells as compared to mice transplanted with Gro-β T and AMD3100-mobilized PBMCs,[5],approximately 10 fold
same,mice died of aGVHD at day 24,[5],3/16
same,mice remained alive at day 60 post-transplant,[5],11/16
same,increase over baseline in the number of CD34^dim cells,[6],about a nine-fold increase
